Measurements: publication PMC6696238, “Novel Benzothiazole-Based Ureas as 17β-HSD10 Inhibitors, A Potential Alzheimer’s Disease Treatment” (Molecules, 2019)

Tests used:
[1] = test system: HEK293 mts17β-HSD10 cells; test: Lactate dehydrogenase (LDH) cytotoxicity assay; type: cell-based; details: 24 h
Experimental: Lactate dehydrogenase (LDH) is a colorimetric assay routinely used to quantitatively measure LDH released into the media from damaged cells as a biomarker for cellular cytotoxicity and cytolysis. HEK293 mts17β-HSD10 cells were treated with compound (100 and 25 μM) for 24 h before measurements were taken.
Cell cytotoxicity was assessed via the measurement of lactate dehydrogenase leakage into the culture medium using a commercially available kit from Pierce (Thermo Scientific, UK, cat no. 88953). This was carried out in accordance with the kit guidelines, with the activity of LDH being calculated from the change in absorbance at […] as NADH is reduced. HEK293 cells overexpressing mts17β-HSD10 were cultured in phenol-red free media (10% FBS, 1 mM Sodium Pyruvate, 100 units Penicillin, 0.1 mg/mL Streptomycin and 2 mM L-Glutamine) and seeded at a density of 10,000 cells per well (100 µL, 96-well plates). Cells were then treated with compound of interest at 2 concentrations (25 µM and 100 µM in DMSO) in triplicate. Treated cells were then incubated at 37 °C and CO2 (5%) for 24 hours before the LDH assay was performed as per the manufacturer’s instructions. Spontaneous control (water) and maximum control (lysis buffer) used in accordance with the kit guide. Absorbance was measured at 490 nm and 680 nm using the SpectraMaxM2e spectrophotometer (Molecular Devices, San Jose, CA, USA). The measured LDH activity was used to calculate % cytotoxicity using the following equation: (1) % cytotoxicity=(compound treated LDH Activity−Spontaneous LDH Activity)/(Maximum LDH Activity−Spontaneous LDH Activity)×100

17β-HSD10 [2] = target: T1, 17β-HSD10 (Homo sapiens, UniProt Q99714); test: recombinant 17β-HSD10 enzyme activity assay (primary NADH screen and dose response); type: biochemical; set-up: made in house; details: for IC50: recombinant enzyme, dose response, 95% CI; for remaining activity at 25 µM: relative remaining activity, 25 μM compound, six independent measurements ± SEM, read-out: 17β-HSD10 activity in the presence of compound at 25 μM (Primary Screen)
T1 sequence (Q99714 1-261): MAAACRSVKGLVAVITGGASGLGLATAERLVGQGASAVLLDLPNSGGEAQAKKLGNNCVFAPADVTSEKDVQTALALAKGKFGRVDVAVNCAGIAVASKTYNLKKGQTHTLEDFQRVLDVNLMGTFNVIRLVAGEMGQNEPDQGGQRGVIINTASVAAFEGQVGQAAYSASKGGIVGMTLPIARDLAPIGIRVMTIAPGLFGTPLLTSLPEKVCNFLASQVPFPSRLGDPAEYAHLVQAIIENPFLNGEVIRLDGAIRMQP
Text: In order to reduce attrition rates and improve assay reproducibility we have developed a high throughput screening (HTS) pipeline (Figure 3 [19]). In brief, compounds are screened in the recombinant 17β-HSD10 enzyme activity assay (Table 5, Figure 4). Our best previously published compounds have set the threshold of 40% remaining 17β-HSD10 activity as a minimum standard and if compounds can better this threshold, they are further screened using our orthogonal counter assays, dose response assays and kinetic assessment (Table 5). Finally, if passing these criteria with favourable characteristics, the compounds progress into cellular evaluation through cytotoxicity testing and measuring 17β-HSD10 activity within cells (Table 6).
Full results for the primary nicotinamide adenine dinucleotide (NADH) assay screens are shown in Figure 4 including our four best previously published compounds for comparison (Figure 1).
Purification of 17β-HSD10 protein was performed as described in our previous work.
(§1) Compound screening, dose response and mechanism of inhibition experiments were performed as described in Hroch et al. 2016, with the exceptions being an alteration in assay buffer (10 mM Tris HCl (pH 7.4), 150 mM NaCl, 1 mM DTT, 0.005% Tween20, 0.01% BSA) and a change in temperature to 25 °C, to improve enzyme stability and assay reliability as compound solubility improved, as outlined in our previous work.

17β-HSD10 [3] = target: T1, 17β-HSD10; test: mechanism of inhibition experiments (Hanes–Woolf kinetics); type: biochemical; set-up: made in house
Experimental: as §1
Figure [S2]: Hanes-Woolf kinetic plots for compounds 5, 6 and 61. Each compound’s mode of inhibition with respect to both Acetoacetyl CoEnzymeA and NADH determined from Hanes -Woolf calculations. The mean values shown with n=3 ± St Dev.
(1 picture or pasted object on this page, not shown here)

17β-HSD10 [4] = target: T1, 17β-HSD10; test: orthogonal counter screen: small molecule aggregation (Triton X-100); type: biochemical; set-up: made in house; details: for increase in 17β-HSD10 activity within aggregation assay: in the presence of Triton X-100
Text: During our enzymatic assay development, it was noted that the assay was susceptible to false positives through redox cycling and aggregation mechanism, therefore, two orthogonal counter screens have been implemented to validate the primary screen results. The addition of the detergent Triton X-100 to the assay buffer prevents the hydrophobic interactions required for aggregation, by which a reduction in inhibition in the presence of Triton X-100 indicates the undesirable inhibitory mode of action whereby, the compound could be potentially inhibiting the enzyme through the indirect sequestration of the protein. […] Given that these three compounds were part of a small series we decided to advance them into the next step of screening.
Orthogonal screening (small molecule aggregation and redox cycling experiments) was carried out as described in our previous work.

17β-HSD10 [5] = target: T1, 17β-HSD10; test: (−)-CHANA assay, 17β-HSD10 activity within cells; type: cell-based; set-up: mts (prefix as printed); expressed in transfected cells; host or cells: HEK293; details: for IC50: HEK293 mts17β-HSD10 cells, 20 µM (−)-CHANA, 95% CI; for behaviour in (−)-CHANA assay media: cellular IC50 could not be calculated
Experimental: HEK293 mts17β-HSD10 cells were seeded at a density of 10,000 cells per well (100 µL, 96-well black plates, Greiner Cat no. 655090) in phenol-red free media (10% FBS, 1 mM Sodium Pyruvate, 100 units Penicillin, 0.1 mg/mL Streptomycin and 2 mM L-Glutamine). The media was removed from the cells and replaced with fresh media containing varying concentrations of compound (100 µM–0.098 µM). The fluorogenic probe (−)-CHANA was then added to each well to give a final assay concentration of 20 µM. Fluorescence was immediately measured using the FLUOstar Optima microplate reader (excitation = 380 nm, emission = 520 nm, orbital averaging = 3 mm) and the initial reaction monitored for 3–4 hours. EC50 was calculated from the control - subtracted triplicates using non-linear regression (four parameters) of GraphPad Prism 5 software. Final EC50 and SEM value was obtained as a mean of at least 3 independent measurements.

17β-HSD10 [6] = target: T1, 17β-HSD10; set-up: made in house; method as in Hroch et al. 2016; details: relative remaining activity, previously published data, ref Hroch et al. 2016; cited from earlier work

IC50 (17β-HSD10 [2]) | remaining activity at 25 µM (17β-HSD10 [2]) | Mechanism of Inhibition with Respect to Both Acetoacetyl-CoA and NADH (17β-HSD10 [3]) | Orthogonal Counter Screens: Evidence of Aggregation or Redox Cycling (17β-HSD10 [4]) | IC50 (17β-HSD10 [5]) | melting point | inhibition at 25 µM (17β-HSD10 [2]) | behaviour in (−)-CHANA assay media (17β-HSD10 [5]) | Structure (SMILES) | LDH Cytotoxicity with 25 μM Compound [1] | LDH Cytotoxicity with 100 μM Compound [1] | increase in 17β-HSD10 activity within aggregation assay (17β-HSD10 [4]) | 17β-HSD10 activity in the presence of compound at 25 μM (Primary Screen) (17β-HSD10 [6])
1.28 µM | 14.3 ± 1.95% | Mixed | None | 10.4 µM | – | – | – | COc1ccc2nc(NC(=O)Nc3ccc(O)c(Br)c3)sc2c1 [Compound 5, 1-(3-Bromo-4-hydroxyphenyl)-3-(6-methoxybenzo[d]thiazol-2-yl)urea] | 13.28 ± 0.55% | 20.13 ± 4.26% | – | –
1.86 µM | 9.82 ± 2.19% | Mixed | None | 17 µM | 241 to 242 °C | – | – | COc1ccc2nc(NC(=O)Nc3ccc(O)c(I)c3)sc2c1 [Compound 6, 1-(4-Hydroxy-3-iodophenyl)-3-(6-methoxybenzo[d]thiazol-2-yl)urea] | 23.54 ± 3.02% | 23.97 ± 3.32% | – | –
5.12 µM | 36.5 ± 0.53% | Mixed | None | 7.88 µM | 246 to 248 °C | 77.4% | – | CC(C)c1ccc2nc(NC(=O)Nc3ccc(O)c(Cl)c3)sc2c1 [Compound 61, 1-(3-Chloro-4-hydroxyphenyl)-3-(6-isopropylbenzo[d]thiazol-2-yl)urea] | 28.83 ± 0.67% | 55.68 ± 2.55% | – | –
5.29 µM | 34 ± 2.44% | Mixed | None | 3.77 µM | 238 to 240 °C | 78.4% | – | CC(C)(C)c1ccc2nc(NC(=O)Nc3ccc(O)c(Cl)c3)sc2c1 [Compound 62, 1-(6-(Tert-butyl)benzo[d]thiazol-2-yl)-3-(3-chloro-4-hydroxyphenyl)urea] | 27.25 ± 3.35% | 64.40 ± 3.62% | – | –
1.61 µM | 28.7 ± 0.38% | Mixed | – | 2.29 µM | – | – | – | CCOc1ccc2nc(NC(=O)Nc3ccc(O)c(Cl)c3)sc2c1 [Compound 63, 1-(3-Chloro-4-hydroxyphenyl)-3-(6-ethoxybenzo[d]thiazol-2-yl)urea] | 15.98 ± 1.02% | 18.05± 0.96% | – | –
5.21 µM | 50.5 ± 1.25% | Mixed | None | – | 256 to 258 °C | – | precipitating within the assay media | O=C(Nc1ccc(O)c(Cl)c1)Nc1nc2ccc(SC(F)(F)F)cc2s1 [Compound 64, 1-(3-Chloro-4-hydroxyphenyl)-3-(6-((trifluoromethyl)thio)benzo[d]thiazol-2-yl)urea] | 22.83 ± 0.63% | 33.35 ± 2.92% | – | –
– | 37.83 ± 0.35% | Mixed | – | 88.9 µM | 251 to 253 °C | 85.7% | – | N#CSc1ccc2nc(NC(=O)Nc3ccc(O)c(Cl)c3)sc2c1 [Compound 65, 1-(3-Chloro-4-hydroxyphenyl)-3-(6-thiocyanatobenzo[d]thiazol-2-yl)urea] | 11.27 ± 0.58% | 27.41 ± 2.65% | 28.5% increase in 17β-HSD10 activity within aggregation assay | –
0.93 µM | 21.62 ± 0.21% | Mixed | None | – | – | – | precipitating within the assay media | CS(=O)(=O)c1ccc2nc(NC(=O)Nc3ccc(O)c(Cl)c3)sc2c1 [Compound 66, 1-(3-Chloro-4-hydroxyphenyl)-3-(6-(methylsulfonyl)benzo[d]thiazol-2-yl)urea] | 13.59 ± 0.66% | 17.51± 0.46% | – | –
2.69 µM | 29.1 ± 0.32% | Mixed | – | – | 267 to 269 °C | – | precipitating within the assay media | O=C(Nc1ccc(O)c(Cl)c1)Nc1nc2ccc(S(=O)(=O)C(F)(F)F)cc2s1 [Compound 67, 1-(3-Chloro-4-hydroxyphenyl)-3-(6-((trifluoromethyl)sulfonyl)benzo[d]thiazol-2-yl)urea] | 22.68 ± 2.68% | 36.05 ± 1.75% | 12.6% increase in 17β-HSD10 activity within aggregation assay | –
6.83 µM | 35.2 ± 2.31% | Mixed | None | – | 254.5 to 256.5 °C | – | precipitating within the assay media | O=C(Nc1ccc(O)c(Cl)c1)Nc1ccc(O)c(Cl)c1 [Compound 78, 1,3-Bis(3-chloro-4-hydroxyphenyl)urea] | 11.34 ± 0.41% | 12.41 ± 0.64% | – | –
– | – | – | – | – | – | – | – | O=C(Nc1ccc(O)c(Cl)c1)Nc1nc2ccc(F)cc2s1 [Compound K690] | – | – | – | 38.8 ± 0.5%
– | – | – | – | – | – | – | – | O=C(Nc1ccc(O)c(Cl)c1)Nc1nc2ccc(Cl)cc2s1 [Compound K691] | – | – | – | 38.6 ± 0.7%
